What is called CC50 is the concentration at which the toxic effect on the cells reaches its halfway point. A higher CC50 goes with better tolerance by the cells.

Where “and” joins values, the source holds several entries; their conditions need not be identical. Equal entries are not always repeated. Where two headings read alike, the source gives them in different places.

The test system of series [1] is SARS-CoV-1. Conditions: read-out: EC50 against SARS-CoV-1; cited from earlier work.
For series [2] the following is noted: human, uptake of 612 mg, extrapolated from 0.07% of dose in rat lung.
Series [3] concerns SARS-CoV-1. The following applies: mouse; cited from earlier work.
In another series the test system is dengue virus type 2. Conditions: cited from earlier work.
The nature of another series: Cytotoxicity assay. The class given is cell-based. Conditions: African green monkey, Vero E6 cells.
For series [4] the following is noted: can go up; cited from earlier work.
For series [5] the following is noted: cited from earlier work.
The test system of series [6] is SARS-CoV-2. Conditions: read-out: EC50 against SARS-CoV-2; Vero E6 cells, MOI of 0.2; cited from earlier work.
For series [7] the following is noted: cited from earlier work. The source holds these as a separate data set.
The subject of series [8] is SARS-CoV-2 (clinically isolated strain IHUMI-3). Type of series: cell-based. Conditions: for Selectivity index (SI), ratio CC50/EC50: Vero E6 cells.
The conditions of series [9]: at 6 h; cited from earlier work.
The test system of series [10] is SARS-CoV-2. The following applies: 10 μM, Vero E6 cells infected by SARS-CoV-2; cited from earlier work.
For series [11], the system named is Ebola virus. Conditions: mouse, in vivo; cited from earlier work.
The conditions of series [12]: cited from earlier work. This is another data set of the same source.
Series [13] concerns Ebola virus. Conditions: read-out: EC50 against Ebola virus; cited from earlier work.
The test system of series [14] is SARS-CoV-2. Conditions: read-out: EC50 against SARS-CoV-2; in vitro; cited from earlier work.
In the next series the test system is feline coronavirus. Conditions: read-out: EC50 against feline coronavirus; cited from earlier work.
[15] abbreviates: amodiaquine given at 612 mg day.
Where [16] appears, read: rats, single oral dose of 2 mg (10 mg/kg).

Turning to `CCN(CC)Cc1cc(Nc2ccnc3cc(Cl)ccc23)ccc1O` [Amodiaquine], the EC50 in the series with SARS-CoV-1 [1] was 2500 nM; in the series on dengue virus type 2 (read-out: EC50, dengue virus type 2 replication), 1080 nM. Also, in [2], the “Amount that would be found in lungs” value was 428 µg. Further, the “In vivo activity on SARS-CoV-1” value in the series on SARS-CoV-1 [3] was “inactive”. Moreover, the EC90 with dengue virus type 2 (read-out: EC90, dengue virus type 2 replication) is 2690 nM.
Compound `CCN(CC)CCCC(C)Nc1ccnc2cc(Cl)ccc12` (stereo not shown) [Chloroquine] gave a CC50 at 48 h in “Cytotoxicity assay” above 100 µM. Moreover, the “Concentration in the lung” value in series [4] is on record as “up to 280 mg/kg”. Also, the Plasma concentration in series [5] (chloroquine 100 mg day, prophylaxis of malaria) was 0.01–0.4 mg/l and 0.03–1.25 μM. Further, the EC50 was 2500 nM with SARS-CoV-1 [1] and 7.1 µM in the series with SARS-CoV-2 [6]. In addition, in the series with SARS-CoV-1 [3], the “In vivo activity on SARS-CoV-1” value is “inactive”. Further, the Adverse events in series [7] is on record as 56%. Further, the “Selectivity index (SI), ratio CC50/EC50” value in [8] is on record as above 47.
Compound `CCNCc1cc(Nc2ccnc3cc(Cl)ccc23)ccc1O` [Desethylamodiaquine] showed a CC50 at 48 h in “Cytotoxicity assay” of 86.1 ± 10.5 µM. For the same compound, in series [5] (setting [15]), the “Plasma concentration of desethylamodiaquine” value was 753 ng/ml and around 1.9 μM; the t1/2 is reported as 8.9 days.
Turning to `C[C@H]1[C@@H](O)O[C@@H]2O[C@@]3(C)CC[C@H]4[C@H](C)CC[C@@H]1[C@@]24OO3` [Dihydroartemisinin], the CC50 at 48 h in the series “Cytotoxicity assay” came to 58.9 ± 7.4 µM. Further, the “Selectivity index (SI), ratio CC50/EC50” value in [8] was determined as 3.
For the compound `CCN(CCO)CCCC(C)Nc1ccnc2cc(Cl)ccc12` (stereo not shown) [Hydroxychloroquine], in “Cytotoxicity assay”, it took 20.4 ± 1.4 µM to reach half-maximal cytotoxicity (CC50 at 48 h). In addition, the Cmax in series [5] (oral uptake of 400 mg) was 1220 nM. In [9], the Blood concentration result is given as “around 0.3 μM” and the Lung concentration was 7.8 µM. In addition, the EC50 in the series on SARS-CoV-2 [6] was 17.3 µM.
As to `CCCCN(CCCC)CC(O)c1cc(Cl)cc2c1-c1ccc(Cl)cc1/C2=C/c1ccc(Cl)cc1` (stereo not shown) [Lumefantrine], the midpoint of cytotoxicity in the series “Cytotoxicity assay”, the CC50 at 48 h, lay at 87.7 ± 11.9 µM. Further, the Cmax in series [5] (single oral dose 480 mg) is 1100 nM. The “Selectivity index (SI), ratio CC50/EC50” value in series [8] turned out to be 4.
On to `OC(c1cc(C(F)(F)F)nc2c(C(F)(F)F)cccc12)C1CCCCN1` (stereo not shown) [Mefloquine], for which the CC50 at 48 h in the series “Cytotoxicity assay” worked out at 14.4 ± 2.1 µM. Also, the “Inhibition of cytopathic effect” value in the series on SARS-CoV-2 [10] was “inhibited completely”.
As to `Clc1ccc2c(N3CCN(CCCN4CCN(c5ccnc6cc(Cl)ccc56)CC4)CC3)ccnc2c1` [Piperaquine], it took 55 ± 4.8 µM to reach half-maximal cytotoxicity in the series “Cytotoxicity assay” (CC50 at 48 h). Also, the “Selectivity index (SI), ratio CC50/EC50” value in series [8] is reported as 2.
In “Cytotoxicity assay”, `COc1ccc2nc3cc(Cl)ccc3c(Nc3cc(CN4CCCC4)c(O)c(CN4CCCC4)c3)c2n1` [Pyronaridine] came in with a CC50 at 48 h of 15.9 ± 1.6 µM. In series [5] (720 mg day, human), the t1/2 is 33.5 days. Also, in series [5] (720 mg day, human, listed as Pyronaridine tetraphosphate), the Plasma concentration is 271 ng/ml and around 0.3 μM. The “Protection against Ebola virus infection” value in the series on Ebola virus [11] is “protected mice”. Further, in series [12] (setting [16]), the “Blood Cmax” value was 223 ng/mL, the “Lung Cmax” value is 36.4 µg/g and the “Lung Cmax relative to blood Cmax (more concentrated)” value is 165. In addition, the EC50 with Ebola virus [13] was 1140 nM. The Adverse events result in series [7] was “around 38%”. In addition, the “Selectivity index (SI), ratio CC50/EC50” value in series [8] was 22.
Consider `C=C[C@H]1C[N@@]2CC[C@H]1C[C@H]2[C@H](O)c1ccnc2ccc(OC)cc12` [Quinine], for which the half-maximal cytotoxic concentration (CC50) at 48 h in the series “Cytotoxicity assay” is above 100 µM. In addition, the “Blood Cmax” value in [5] (600 mg single oral dose of quinine sulphate) is reported as “around 3.5 mg/l”. Also, in series [5] (read-out: Blood Cmax, 600 mg single oral dose of quinine sulphate), the Cmax was around 8500 nM. Besides, the Concentration lung/blood ratio in series [12] (rat, intravenous dose of 10 mg/kg) was 246.
As for `C[C@H]1c2cccc(O)c2C(=O)C2=C(O)[C@]3(O)C(=O)C(C(N)=O)=C(O)[C@@H](N(C)C)[C@@H]3[C@@H](O)[C@@H]21` [doxycycline], the EC50 in the series on SARS-CoV-2 [14] was 5.6 µM.
For Ferroquine, the figures for the EC50 (with feline coronavirus; in the series on SARS-CoV-1 [1]; in [8] (read-out: Median effective concentration (EC50) against SARS-CoV-2)) were 2900 nM, 1400 nM and 1500 ± 300 nM, respectively. Also, the “Mean Cmax (maximum blood concentration)” value in series [5] (oral uptake of 800 mg) is 155 ng/mL. For the same compound, the “t1/2 (elimination half-life)” value in series [5] (oral uptake of 800 mg) is recorded as 10.9 days. Besides, in series [5] (read-out: Mean Cmax (maximum blood concentration), oral uptake of 800 mg), the Cmax was around 600 nM. For the same compound, in series [8] (read-out: 90% effective concentration (EC90) against SARS-CoV-2), the EC90 amounted to 2400 ± 900 nM.

The values are drawn from article PMC7477610 (Travel Medicine and Infectious Disease, 2020).
